Results: article PMC7594721, “Synthesis and biological activity of 2-cyanoacrylamide derivatives tethered to imidazopyridine as TAK1 inhibitors” (Journal of Enzyme Inhibition and Medicinal Chemistry, 2020)

What was measured:
Test in all cases: Kinase HotSpot profiling (Reaction Biology Corp.)
Type in all cases: biochemical
Details in all cases: ATP at Km
MEKK2 = target: T1, MEKK2 (Homo sapiens, UniProt Q9Y2U5)
T1 construct: purchased Reaction Biology Corp
T1 sequence (Q9Y2U5 1-619): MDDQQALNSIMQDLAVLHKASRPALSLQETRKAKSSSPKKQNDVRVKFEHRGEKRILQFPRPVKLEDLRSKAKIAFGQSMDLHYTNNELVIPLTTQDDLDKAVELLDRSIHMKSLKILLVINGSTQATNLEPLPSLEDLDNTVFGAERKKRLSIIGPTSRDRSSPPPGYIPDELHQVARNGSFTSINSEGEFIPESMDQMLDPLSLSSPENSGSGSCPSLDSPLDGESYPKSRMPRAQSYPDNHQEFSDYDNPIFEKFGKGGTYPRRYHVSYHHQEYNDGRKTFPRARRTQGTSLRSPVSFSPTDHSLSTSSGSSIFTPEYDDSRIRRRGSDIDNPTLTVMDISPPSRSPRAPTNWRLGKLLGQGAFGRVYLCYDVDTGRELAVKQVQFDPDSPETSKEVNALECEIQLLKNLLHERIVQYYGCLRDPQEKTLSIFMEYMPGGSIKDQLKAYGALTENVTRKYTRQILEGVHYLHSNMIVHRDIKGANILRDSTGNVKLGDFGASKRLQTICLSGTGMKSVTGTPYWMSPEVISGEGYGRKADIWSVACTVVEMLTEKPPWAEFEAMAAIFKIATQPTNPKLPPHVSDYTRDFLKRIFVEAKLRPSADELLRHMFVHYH
Procedure: (§1) Kinase assays were performed by Invitrogen (now Thermo Fisher Scientific, Waltham, MA) or Reaction Biology Corp. (Malvern, PA). Inhibitory activity of compounds for TAK1 was evaluated using LanthaScreen® Eu Kinase Binding Assay (Invitrogen, Waltham, MA). The kinase profile of compound 13h was determined by the kinase HotSpot Profiling service of Reaction Biology Corporation. All assays were performed at Km for ATP.

MEKK6 = target: T2, MEKK6 (Homo sapiens, UniProt O95382)
T2 construct: purchased Reaction Biology Corp
T2 sequence (O95382 1-1288): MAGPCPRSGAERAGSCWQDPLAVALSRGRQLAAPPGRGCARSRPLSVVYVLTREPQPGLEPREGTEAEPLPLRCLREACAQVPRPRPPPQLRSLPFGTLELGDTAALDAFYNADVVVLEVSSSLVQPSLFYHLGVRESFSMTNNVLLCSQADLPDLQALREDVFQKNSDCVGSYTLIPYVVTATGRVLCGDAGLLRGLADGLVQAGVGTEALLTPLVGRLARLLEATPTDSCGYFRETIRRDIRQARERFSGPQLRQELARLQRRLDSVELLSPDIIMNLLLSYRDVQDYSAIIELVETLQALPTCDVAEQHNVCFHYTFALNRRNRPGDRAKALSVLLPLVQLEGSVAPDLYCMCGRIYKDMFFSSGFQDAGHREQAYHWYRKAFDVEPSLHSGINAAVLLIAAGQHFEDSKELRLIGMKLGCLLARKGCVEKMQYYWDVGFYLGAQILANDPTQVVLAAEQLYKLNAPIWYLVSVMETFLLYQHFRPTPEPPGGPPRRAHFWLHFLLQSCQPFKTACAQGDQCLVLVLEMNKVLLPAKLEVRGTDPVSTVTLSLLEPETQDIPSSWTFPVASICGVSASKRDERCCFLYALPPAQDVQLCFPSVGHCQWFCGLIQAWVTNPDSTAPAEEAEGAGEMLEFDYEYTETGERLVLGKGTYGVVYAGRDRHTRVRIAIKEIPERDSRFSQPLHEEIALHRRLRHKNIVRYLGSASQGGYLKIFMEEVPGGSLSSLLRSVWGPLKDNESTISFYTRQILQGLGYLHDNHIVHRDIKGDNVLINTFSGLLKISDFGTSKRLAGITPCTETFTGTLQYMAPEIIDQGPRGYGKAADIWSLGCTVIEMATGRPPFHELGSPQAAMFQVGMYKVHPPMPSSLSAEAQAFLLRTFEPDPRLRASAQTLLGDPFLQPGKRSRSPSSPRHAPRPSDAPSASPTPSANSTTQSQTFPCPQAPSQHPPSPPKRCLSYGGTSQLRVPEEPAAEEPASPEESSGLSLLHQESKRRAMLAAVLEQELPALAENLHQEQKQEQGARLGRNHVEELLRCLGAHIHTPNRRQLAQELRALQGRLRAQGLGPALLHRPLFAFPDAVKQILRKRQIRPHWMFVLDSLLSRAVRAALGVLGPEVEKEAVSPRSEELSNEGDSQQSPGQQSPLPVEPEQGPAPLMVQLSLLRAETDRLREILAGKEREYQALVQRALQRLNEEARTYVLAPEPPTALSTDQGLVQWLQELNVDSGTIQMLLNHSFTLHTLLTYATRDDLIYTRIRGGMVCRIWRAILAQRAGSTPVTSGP
Procedure: as §1

MLK2/MAP3K10 = target: T3, MLK2/MAP3K10 (Homo sapiens, UniProt Q02779)
T3 construct: purchased Reaction Biology Corp
Procedure: as §1

ZAK/MLTK = target: T4, ZAK/MLTK (Homo sapiens, UniProt Q9NYL2)
T4 construct: purchased Reaction Biology Corp
Procedure: as §1

T3 sequence (Q02779 whole entry): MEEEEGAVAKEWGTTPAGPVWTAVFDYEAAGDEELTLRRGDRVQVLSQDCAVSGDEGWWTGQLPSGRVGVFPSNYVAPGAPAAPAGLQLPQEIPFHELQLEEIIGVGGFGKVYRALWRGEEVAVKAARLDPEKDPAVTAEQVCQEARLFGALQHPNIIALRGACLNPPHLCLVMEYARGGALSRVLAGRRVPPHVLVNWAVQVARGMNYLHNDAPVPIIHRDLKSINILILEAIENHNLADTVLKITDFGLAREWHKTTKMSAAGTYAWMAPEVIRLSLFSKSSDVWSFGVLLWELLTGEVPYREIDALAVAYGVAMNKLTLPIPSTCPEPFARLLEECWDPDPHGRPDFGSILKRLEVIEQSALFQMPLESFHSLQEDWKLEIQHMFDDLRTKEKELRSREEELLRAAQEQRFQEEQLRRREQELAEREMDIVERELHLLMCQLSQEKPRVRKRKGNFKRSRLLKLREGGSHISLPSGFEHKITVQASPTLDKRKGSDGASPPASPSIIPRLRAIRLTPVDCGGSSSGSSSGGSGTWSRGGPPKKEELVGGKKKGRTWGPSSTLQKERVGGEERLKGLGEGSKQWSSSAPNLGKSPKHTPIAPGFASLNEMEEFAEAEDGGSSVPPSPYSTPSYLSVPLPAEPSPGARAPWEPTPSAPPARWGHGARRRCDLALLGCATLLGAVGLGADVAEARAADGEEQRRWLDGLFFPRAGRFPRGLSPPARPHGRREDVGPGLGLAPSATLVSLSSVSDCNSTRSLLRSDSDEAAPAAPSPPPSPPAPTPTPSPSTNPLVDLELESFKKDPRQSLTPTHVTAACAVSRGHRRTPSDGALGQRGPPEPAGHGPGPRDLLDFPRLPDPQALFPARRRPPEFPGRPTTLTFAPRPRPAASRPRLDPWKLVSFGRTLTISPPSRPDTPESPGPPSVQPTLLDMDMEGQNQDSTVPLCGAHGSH
T4 sequence (Q9NYL2 whole entry): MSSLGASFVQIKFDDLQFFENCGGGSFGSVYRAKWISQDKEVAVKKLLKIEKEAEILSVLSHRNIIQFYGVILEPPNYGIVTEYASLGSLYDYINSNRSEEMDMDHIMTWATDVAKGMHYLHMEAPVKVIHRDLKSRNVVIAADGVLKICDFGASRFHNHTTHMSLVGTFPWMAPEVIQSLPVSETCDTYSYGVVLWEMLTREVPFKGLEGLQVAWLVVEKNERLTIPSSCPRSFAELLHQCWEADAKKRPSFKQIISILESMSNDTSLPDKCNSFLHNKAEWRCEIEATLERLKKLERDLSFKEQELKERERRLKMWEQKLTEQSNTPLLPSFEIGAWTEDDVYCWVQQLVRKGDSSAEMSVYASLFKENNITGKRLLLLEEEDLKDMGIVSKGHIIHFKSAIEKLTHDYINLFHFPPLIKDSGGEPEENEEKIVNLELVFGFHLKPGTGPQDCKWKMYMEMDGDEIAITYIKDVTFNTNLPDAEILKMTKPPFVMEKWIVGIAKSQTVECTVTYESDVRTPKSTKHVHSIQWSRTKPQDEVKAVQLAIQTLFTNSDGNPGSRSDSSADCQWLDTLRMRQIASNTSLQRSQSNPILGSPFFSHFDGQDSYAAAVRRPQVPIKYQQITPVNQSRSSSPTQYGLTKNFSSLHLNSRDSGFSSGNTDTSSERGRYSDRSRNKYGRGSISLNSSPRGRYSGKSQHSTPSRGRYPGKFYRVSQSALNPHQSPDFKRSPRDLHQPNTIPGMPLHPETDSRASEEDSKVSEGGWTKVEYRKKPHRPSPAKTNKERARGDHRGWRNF

inhibition at 1 µM (MEKK2): 0%
inhibition at 1 µM (MEKK6): 0%
inhibition at 1 µM (MLK2/MAP3K10): 30 ± 2%
inhibition at 1 µM (ZAK/MLTK): 29 ± 1.4%
Structure (SMILES): Cc1cccc(/C=C(\C#N)C(=O)N[C@@H]2CCN(c3c(Cl)cnc4[nH]c(-c5ccc(N6CCN(C)CC6)cc5)nc34)C2)n1 [Compound 13h, (R,E)-N-(1–(6-chloro-2–(4-(4-methylpiperazin-1-yl)phenyl)-3H-imidazo[4,5-b]pyridin-7-yl)pyrrolidin-3-yl)-2-cyano-3-(6-methylpyridin-2-yl)acrylamide]
